According to US20250059180A1 (DONG WHA PHARM. CO., LTD., priority 2022, published 2025):
Where two headings read alike, the source gives them in different places.

Legend:
[1] = system: Pfeiffer cells, lymphoma cells having EZH2 mutation (A677G); experiment: Proliferation inhibition of cells of hematologic malignancies (CCK-8, 11 days); type: cell-based; settings: 11 days culture, read-out: Cell proliferation inhibitory effect (IC50)
How it was run: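 Pfeiffer lymphoma cells (EZH2 A677G) in RPMI1640 with 10% FBS were seeded at 10,000 cells/well and exposed to test material for 11 days, with compound replaced every 3–4 days. Viability was read by CCK-8 absorbance at 450 nm, and IC50 was derived by non-linear regression curve fitting.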

EZH2 = EZH2 (Homo sapiens, UniProt Q15910); experiment: AlphaLISA evaluation of inhibitory activity against EZH2; type: biochemical; settings: DMSO control; for Enzyme inhibition % EZH2 5 nM: test material 5 nM; for Enzyme inhibition % EZH2 10 nM: test material 10 nM
Method: (§1) In order to confirm the EZH1 and/or EZH2 activity inhibitory effect of the 1,3-benzodioxole derivative compounds represented by chemical formula I of the present invention, the activity was measured using an AlphaLISA test method.
(§2) The test material dissolved in dimethylsulfoxide (DMSO) was diluted in a test solution (20 mM Tris pH 8.0, 0.1% BSA, 0.01% Triton X-100, 0.5 mM DTT) according to a final treatment concentration (5 nM or 10 nM), mixed with EZH1 and EZH2, respectively, and then added with histone H3 peptide and S-adenosylmethionine (SAM) to initiate an enzyme reaction. An acceptor bead was added thereto after reaction for two hours and subjected to an additional reaction for one hour, after which a donor bead was added thereto. After an additional reaction for 30 minutes, the reaction was completed. Activity was measured using the Magellan program on a Spark10M instrument. DMSO was used as a control group, an inhibition rate of enzyme activity was calculated using the following equation, and the results thereof are shown in Table 1 below.
(§3) Activity inhibition rate (%)=(1−(Group treated with test material/Control group))*100

EZH1 = EZH1 (Homo sapiens, UniProt Q92800); experiment: AlphaLISA evaluation of inhibitory activity against EZH1; type: biochemical; settings: DMSO control; for Enzyme inhibition % EZH1 5 nM: test material 5 nM; for Enzyme inhibition % EZH1 10 nM: test material 10 nM
Method: as §1, §2, §3

EZH1, sequence (Q92800 whole entry): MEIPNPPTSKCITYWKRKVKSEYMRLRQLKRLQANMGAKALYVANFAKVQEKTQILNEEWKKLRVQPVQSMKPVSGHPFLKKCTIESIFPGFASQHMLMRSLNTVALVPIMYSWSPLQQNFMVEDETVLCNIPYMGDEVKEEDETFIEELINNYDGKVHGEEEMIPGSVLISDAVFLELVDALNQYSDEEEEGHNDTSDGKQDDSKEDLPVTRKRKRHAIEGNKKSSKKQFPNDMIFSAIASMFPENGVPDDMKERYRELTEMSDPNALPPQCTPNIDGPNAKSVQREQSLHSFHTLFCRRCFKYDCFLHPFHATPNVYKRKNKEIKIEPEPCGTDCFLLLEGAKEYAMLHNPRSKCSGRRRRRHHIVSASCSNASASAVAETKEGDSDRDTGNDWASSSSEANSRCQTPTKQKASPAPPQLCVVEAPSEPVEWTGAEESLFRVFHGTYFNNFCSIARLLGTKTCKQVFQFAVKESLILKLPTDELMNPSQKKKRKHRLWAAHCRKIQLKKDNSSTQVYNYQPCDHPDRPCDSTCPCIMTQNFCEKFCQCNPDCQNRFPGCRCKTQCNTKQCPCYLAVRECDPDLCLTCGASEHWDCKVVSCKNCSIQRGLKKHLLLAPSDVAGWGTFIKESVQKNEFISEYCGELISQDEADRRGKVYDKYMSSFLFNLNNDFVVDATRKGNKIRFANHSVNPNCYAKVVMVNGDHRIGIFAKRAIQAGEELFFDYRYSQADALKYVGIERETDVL
EZH1, sequence (O75530 whole entry partner): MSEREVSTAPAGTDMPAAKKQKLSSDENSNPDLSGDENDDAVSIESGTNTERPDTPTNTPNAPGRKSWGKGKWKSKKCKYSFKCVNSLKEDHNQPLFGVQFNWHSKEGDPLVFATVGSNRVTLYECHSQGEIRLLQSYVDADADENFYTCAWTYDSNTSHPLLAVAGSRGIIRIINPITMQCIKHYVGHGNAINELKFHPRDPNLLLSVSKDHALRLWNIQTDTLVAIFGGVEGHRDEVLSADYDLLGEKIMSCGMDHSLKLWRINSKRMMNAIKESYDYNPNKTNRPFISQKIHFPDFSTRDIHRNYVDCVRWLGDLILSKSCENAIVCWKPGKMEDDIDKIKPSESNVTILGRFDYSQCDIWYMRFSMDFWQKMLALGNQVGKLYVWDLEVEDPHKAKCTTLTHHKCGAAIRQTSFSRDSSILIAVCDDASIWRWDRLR
EZH1, sequence (Q15022 whole entry partner): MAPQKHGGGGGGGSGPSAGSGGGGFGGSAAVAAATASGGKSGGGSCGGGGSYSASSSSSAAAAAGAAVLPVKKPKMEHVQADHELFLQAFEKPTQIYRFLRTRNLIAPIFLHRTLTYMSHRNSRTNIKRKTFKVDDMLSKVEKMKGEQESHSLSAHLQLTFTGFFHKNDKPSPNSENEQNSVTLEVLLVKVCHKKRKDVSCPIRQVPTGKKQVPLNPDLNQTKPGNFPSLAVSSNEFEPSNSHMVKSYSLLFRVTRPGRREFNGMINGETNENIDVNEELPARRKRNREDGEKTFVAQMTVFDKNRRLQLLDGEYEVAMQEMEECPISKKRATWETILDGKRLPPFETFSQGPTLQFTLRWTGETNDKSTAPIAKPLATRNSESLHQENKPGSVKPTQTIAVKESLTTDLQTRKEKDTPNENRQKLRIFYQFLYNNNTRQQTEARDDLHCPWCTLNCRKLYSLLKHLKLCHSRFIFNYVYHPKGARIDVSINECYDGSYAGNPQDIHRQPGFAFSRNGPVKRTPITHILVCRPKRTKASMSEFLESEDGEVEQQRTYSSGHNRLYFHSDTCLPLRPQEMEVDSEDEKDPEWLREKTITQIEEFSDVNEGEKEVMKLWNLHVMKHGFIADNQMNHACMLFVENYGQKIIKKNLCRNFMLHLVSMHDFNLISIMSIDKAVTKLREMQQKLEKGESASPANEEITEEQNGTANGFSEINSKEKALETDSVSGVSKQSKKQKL
EZH2, sequence (Q15910 whole entry): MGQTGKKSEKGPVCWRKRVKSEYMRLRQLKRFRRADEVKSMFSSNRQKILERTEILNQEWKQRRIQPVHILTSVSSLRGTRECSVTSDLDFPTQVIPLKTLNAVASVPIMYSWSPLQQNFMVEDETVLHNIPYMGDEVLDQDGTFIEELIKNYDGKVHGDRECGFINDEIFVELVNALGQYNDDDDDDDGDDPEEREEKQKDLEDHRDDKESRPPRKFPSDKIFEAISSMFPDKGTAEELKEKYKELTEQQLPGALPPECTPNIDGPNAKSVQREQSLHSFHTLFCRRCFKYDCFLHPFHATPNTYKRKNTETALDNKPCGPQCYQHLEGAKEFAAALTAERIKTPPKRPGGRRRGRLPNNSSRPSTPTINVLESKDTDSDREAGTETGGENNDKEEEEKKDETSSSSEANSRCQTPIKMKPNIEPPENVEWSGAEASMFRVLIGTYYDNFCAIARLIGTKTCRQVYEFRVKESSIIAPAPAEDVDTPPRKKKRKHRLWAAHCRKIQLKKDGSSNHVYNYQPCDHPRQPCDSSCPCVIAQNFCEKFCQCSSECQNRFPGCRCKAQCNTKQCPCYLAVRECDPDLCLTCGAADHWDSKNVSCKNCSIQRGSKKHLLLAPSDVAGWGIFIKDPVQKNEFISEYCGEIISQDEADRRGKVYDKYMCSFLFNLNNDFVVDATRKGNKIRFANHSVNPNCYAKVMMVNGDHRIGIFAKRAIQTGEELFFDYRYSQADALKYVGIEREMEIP
EZH2, sequence (O75530 whole entry partner): as the sequence (O75530 whole entry partner) above
EZH2, sequence (Q15022 whole entry partner): as the sequence (Q15022 whole entry partner) above

IC50 [1] [nM] | Enzyme inhibition % EZH2 5 nM (EZH2) [%] | Enzyme inhibition % EZH2 10 nM (EZH2) [%] | Enzyme inhibition % EZH1 5 nM (EZH1) [%] | Enzyme inhibition % EZH1 10 nM (EZH1) [%] | IC50 ([1]; Homo sapiens, Pfeiffer, 264 h) [nM] | Compound
≤ 10 | 98.2 | 99.6 | 71.9 | 87.9 |  | CSc1cc(C)[nH]c(=O)c1CNC(=O)c1cc(-c2cnc(N3CCOCC3)nc2)c2c(c1C)OC(C)(C1CCN(CC(F)(F)F)CC1)O2 (stereo not shown) [Compound 69, 2,4-dimethyl-N-((6-methyl-4-(methylthio)-2-oxo-1,2-dihydropyridin-3-yl)methyl)-7-(2-morpholinopyrimidin-5-yl)-2-(1-(2,2,2-trifluoro)piperidin-4-yl)benzo[d][1,3]dioxole-5-carboxamide]
 | 37.0 | 82.6 |  | 19.9 | ≤ 10 | CSc1cc(C)[nH]c(=O)c1CNC(=O)c1cc(-c2ccc(N3C[C@@H](C)O[C@@H](C)C3)nc2)c2c(c1C)OC(C)([C@H]1CC[C@H](N3CC(OCCCC(F)(F)F)C3)CC1)O2 (stereo partly shown) [Compound 104]
 |  |  |  |  | ≤ 10 | COCCN(C)[C@H]1CC[C@H](C2(C)Oc3c(-c4ccc(N5C[C@@H](C)O[C@@H](C)C5)nc4)cc(C(=O)NCc4c(SC)cc(C)[nH]c4=O)c(C)c3O2)CC1 (stereo partly drawn) [Compound 24, 7-(6-((2S,6R)-2,6-dimethylmorpholino)pyridin-3-yl)-2-(trans-4-((2-methoxyethyl)(methyl)amino)cyclohexyl)-2,4-dimethyl-N-((6-methyl-4-(methylthio)-2-oxo-1,2-dihydropyridin-3-yl)methyl)benzo[d][1,3]dioxole-5-carboxamide]
≤ 10 | 93.6 | 99.4 | 66.9 | 81.8 |  | CSc1cc(C)[nH]c(=O)c1CNC(=O)c1cc(-c2ccc(N3CCOCC3)nc2)c2c(c1C)OC(C)(C1CCN(CC(F)(F)F)CC1)O2 (stereo not shown) [Compound 62, 2,4-dimethyl-N-((6-methyl-4-(methylthio)-2-oxo-1,2-dihydropyridin-3-yl)methyl)-7-(6-morpholinopyridin-3-yl)-2-(1-(2,2,2-trifluoro)piperidin-4-yl)benzo[d][1,3]dioxole-5-carboxamide]
 |  |  |  |  | ≥ 100 | CSc1cc(C)[nH]c(=O)c1CNC(=O)c1cc(-c2ccc3occc3c2)c2c(c1C)OC(C)(C1CCN(CC(F)(F)F)CC1)O2 (stereo not shown) [Compound 96, 7-(benzofuran-5-yl)-2,4-dimethyl-N-((6-methyl-4-(methylthio)-2-oxo-1,2-dihydropyridin-3-yl)methyl)-2-(1-(2,2,2-trifluoroethyl)piperidin-4-yl)benzo[d][1,3]dioxole-5-carboxamide]
